Assay results taken from article PMC4744570 (Pharmaceutical research, 2015).

What was measured:
[1] = parent drug; cited from earlier work
P. aeruginosa = details: cited from earlier work
[2] = Lung pharmacokinetic profiling in guinea pigs after intratracheal instillation; type: in vivo, guinea pigs (Cavia porcellus); details: male, guinea pig, 1.6 mg

**Q.** What does the source list for `C[C@@H](O)[C@H]1C(=O)N2C(C(=O)O)=C(S[C@@H]3CN[C@H](C(=O)N(C)C)C3)[C@H](C)[C@H]12` [meropenem]?
**A.** solubility (S) in water [1]: > 50 mg/mL; MIC90 (P. aeruginosa): 8,000 ng/mL; Cmax ([2]; inhaled or intranasal): > 70000 ng/mL; concentration at 3 h ([2]; other: intratracheal): < 1000 ng/mL; concentration at 9 h ([2]; other: intratracheal): 12 ng/mL; concentration at 12 h ([2]; other: intratracheal): 10 ng/mL
